From patent US9808419B2, “Medicinal treatment of dermal infectious disorders with norketotifen” (priority 2012, dated 2017)
Like-named read-outs stand apart in the source and are kept apart here. Marks after values point to notes of the source that are not given here.

Columns and labels:
[1] = system: histamine wheal response; assay: Histamine-induced wheal (Evans blue) in rats, oral pretreatment; type: in vivo; details: rat; for Saline wheal area: histamine vehicle injection
Method: Male rats (150-200 g) were fasted overnight and twelve hours after dorsal depilation, the animals were orally pretreated with the test compound(s). Four dorsal test areas were marked with permanent ink, carefully avoiding the area closest to the spine. […] Two intradermal injections of the vehicle for the histamine solution were also performed. […] Twenty minutes were allowed for the wheal response to fully develop, whereupon the animals were euthanized and the dorsal skin with the intradermal wheals were deflected. The blue spotted areas were measured in square millimeters and the duplicate wheal areas were averaged. […] The inhibition was calculated in percent difference from said baseline values.

[2] = system: human leukocytes (buffy coat); assay: Inhibition of A23187-stimulated histamine release from human leukocytes; type: cell-based
Method: In these studies, histamine was the marker compound for inflammatory mediators that are released from mast cells and other pro-inflammatory cells in patients with atopic inflammatory diseases. The inhibition of stimulated histamine release from human leukocytes (buffy coat) by test articles was studied. Leukocytes were obtained from healthy volunteers and histamine release was induced by incubation (20 min/37° C.) with the calcium ionophore A23187 (5 μM) in the presence or absence of a test article. Histamine was analyzed by enzyme-immune assays, using commercially available kits and a microplate reader (MRX, Dynatech). The test articles were evaluated, in duplicate, at five concentrations.

[3] = system: histamine-induced pruritus; assay: Histamine-induced pruritus in mice, oral administration; type: in vivo
Method: Antipruritic effects were tested in vivo in CD-1 female mice aged 10-12 weeks. The hair was clipped over the rostral part of the back at the interscapular level of the mice one day before dosing. Before testing, the mice were placed in individual clear plastic cages for at least one hour for acclimation. After fasting for 1.5 hours, the animals were dosed orally with the test article, dissolved in a vehicle consisting of 1% methylcellulose/water, 10 mL/kg body-weight. Sixty minutes after oral dosing, an intradermal injection of histamine (300 nmol in 20 μl phosphate buffered saline (PBS), pH 7.4) was administered into the clipped area. Immediately after the histamine injection, the bouts of scratches were counted for 40 minutes. Scratching induced by the histamine vehicle PBS served as control.
Norketotifen was tested in escalating doses. In addition, a supramaximal dose of 100 mg/kg of norketotifen was tested. The reference compounds JNJ7777120, desloratadine and oclacitinib were dosed orally at 20 mg/kg. The vehicle for the reference compound JNJ7777120 was 20% hydroxypropyl-β-cyclodextrin in water. […]. The numbers of pruritic bouts for Norketotifen, DES and OCLA are expressed in percent of the same Vehicle (100% corresponds to 92 pruritic bouts). […] Scratches induced by the histamine-free vehicle PBS (not shown in Table 5) served as control (6±3 bouts of scratching; N=8)
This test used histamine to induce pruritus. […] The histamine inhibitors are “inverse agonists” at both receptor types.

[4] = system: mice; details: for Sedated animals: mice, 60 min before physostigmine
Method: Mice administered a sedating drug prior to the physostigmine injection are protected from the stress and survive. In the present study, test compounds were given orally 60 minutes prior to physostigmine injection. The number of surviving (sedated) mice was counted 30 minutes after injection of the physostigmine dose.

[5] = Acute toxicity in rats, Up-and-Down Procedure; details: both sexes, Sprague-Dawley, in vivo, rat, hydrogen fumarate salts, read-out: Acute toxicity (estimated LD50)
Method: Acute toxicological studies were performed in rats (Sprague-Dawley; M and F; 200-250 grams). The animal-sparing Up-and-Down Procedure, recommended by FDA and OECD, was used. Both oral and intravenous toxicity tests were performed.
Both compounds were administered as hydrogen fumarate salts.

[6] = system: croton oil inflammatory response; assay: Modified croton oil ear inflammation in mice, topical cream; type: in vivo; details: cream containing 1.0 percent (w/w)
Method: In order to investigate the effects of topical administration of the test compounds in dermal inflammation, a modified croton oil model was used. […] The cream was then removed and a solution of 1% croton oil in 20 μl acetone was applied to both ears. […] Cream was wiped from the ears and ears were removed and weighed. […] All results represent mean ear weights (±S.E.M.) from 8 ears.

[7] = system: histamine-induced pruritus; assay: Histamine-induced pruritus in mice, topical cream; type: in vivo; details: single topical application of 1.0 percent cream
Method: Antipruritic effects were tested in vivo in CD-1 female mice aged 10-12 weeks, according to methods known in the art. The hair was clipped over the rostral part of the back at the interscapular level of the mice one day before dosing. Before testing, the mice were placed in individual clear plastic cages for at least one hour for acclimation. […] Lanolin was weighed and liquified by submerging the vessel containing lanolin in hot water. While the lanolin was liquid, it was rapidly nixed (by vortexing) with the 2.5% norketotifen solution in ethanol, resulting in a 1.0 percent solution. […] A cream containing 60% lanolin/40% ethanol served as control.

[8] = system: Candida albicans; assay: Antimicrobial test; type: cell-based
Description: (§1) Several studies have been performed to evaluate possible antimicrobial activities of norketotifen. Shown here are the results from a standard microbiological test, where the results are expressed as MIC (Minimal Inhibitory Concentration) of the test article against selected exemplary dermal bacteria (such as for example Staphylococcus aureus) and dermal fungi (such as for example Malassezia sp) that are commonly found in human with dermal diseases. […] All the MIC-tests shown in Table 10 were performed in duplicates, using 10 concentrations of the test articles. […] The test culture tubes/plates were incubated in temperatures and durations appropriate for each microorganism (S. aureus: 36° C. and 24 hours; M. globosa: 30° C. and 24 hours).

[9] = system: Malassezia pachydermatis; assay: Antimicrobial test; type: cell-based
Description: as §1

[10] = system: Helicobacter pylori; assay: Antimicrobial test; type: cell-based
[11] = Solubility in non-aqueous topical formulation solvents; type: physicochemical
Method: The hydrophobic ointment was prepared by dissolving norketotifen in propylene glycol. […] Next, glyceryl stearate, cetyl alcohol, and white petrolatum were added to a suitable container and heated to 65-70° C. This heating step melts the surfactants and the petrolatum. Next, norketotifen solution was slowly added and the composition mixed until the solvent was dispersed. Finally, the composition was cooled with mixing to allow the ointment to thicken. If needed, acidity can be adjusted by adding an acid solution or a base solution to obtain the preferred acidity. If needed, viscosity can be adjusted with a viscosity-modifying agent to obtain the preferred viscosity.

[12] = Formation of norketotifen by hepatic demethylation of ketotifen; details: human patients, after an oral dose of one milligram ketotifen; calculated
[13] = system: Malassezia globosa; assay: Antimicrobial MIC test; type: cell-based; details: 30° C. and 24 hours
Description: as §1

[14] = system: Staphylococcus aureus; assay: Antimicrobial MIC test; type: cell-based; details: MRSA or non-resistant S. aureus; 36° C. and 24 hours
Description: as §1

[15] = oral 20 mg/kg, vehicle 1% methylcellulose/water

With `O=C1Cc2ccccc2C(=C2CCNCC2)c2ccsc21` (racemic) [Norketotifen] the Saline wheal area ([1]; oral 1.0 mg/kg) was 22 ± 1 mm^2, the Histamine wheal area ([1]; oral 10 mg/kg, 60 min before intradermal histamine) was 39 ± 2 mm^2 and the Saline wheal area ([1]; oral 10 mg/kg) was 22 ± 1 mm^2. For the same compound, the Saline wheal area ([1]; oral 50 mg/kg) was 12 ± 1 mm^2, the “Potency as inhibitor of histamine release relative to ketotifen” value [2] was “approximately 10 times” and the “Bouts/40 min Mean ± SEM” value ([3]; oral 1 mg/kg) was 84.7 ± 11.6. For the same compound, the “Bouts as % of Vehicle Controls” value ([3]; oral 1 mg/kg, 100% = 92 bouts) was 92%, the “Bouts/40 min Mean ± SEM” value ([3]; oral 3 mg/kg) was 34.1 ± 9.6 and the “Bouts as % of Vehicle Controls” value ([3]; oral 3 mg/kg, 100% = 92 bouts) was 37** %. The “Bouts/40 min Mean ± SEM” value ([3]; oral 10 mg/kg) was 17.8 ± 3.1, the “Bouts as % of Vehicle Controls” value ([3]; oral 10 mg/kg, 100% = 92 bouts) was 19** % and the “Bouts/40 min Mean ± SEM” value ([3]; oral 100 mg/kg) was 8.3 ± 2.8. The “Bouts as % of Vehicle Controls” value ([3]; oral 100 mg/kg, 100% = 92 bouts) was 9*** %, the “Inhibition of histamine-induced pruritus” value ([3]; oral supramaximal dose 100 mg/kg) was “complete inhibition” and the Sedated animals ([4]; oral 83 mg/kg) was 3/10. For the same compound, the Sedated animals ([4]; oral 100 mg/kg) was 3/10, the Sedated animals ([4]; oral 150 mg/kg) was 3/10 and the Sedated animals ([4]; oral 180 mg/kg) was 6/10. The “Sedative activity in mice” value ([4]; mouse, in vivo) was “expressed sedative activity”, the LD50 ([5]; intravenous) was 10 to 15 mg/kg and the LD50 ([5]; oral) was 1500 to 2000 mg/kg. For the same compound, the “Inhibition of croton oil inflammation” value [6] was “completely inhibited”, the “Reduction of histamine-induced pruritus versus Vehicle Control” value [7] was 58% and the “Antimicrobial activity” value [8] was “potent antimicrobial activities”. The “Antimicrobial activity” value [9] was “potent antimicrobial activities”, the “Antimicrobial activity” value [10] was “potent antimicrobial activities” and the Solubility ([11]; formulation G1009, mixture of two polyethylene glycols) was “about 1.0%”. For the same compound, the Solubility ([11]; in propylene glycol) was “about 1.0%” and the “Norketotifen formed in the liver” value [12] was “up to 0.5 mg”.

With `Clc1ccc2c(c1)CCc1cccnc1C2=C1CCNCC1` [DESLORATADINE, reference compound] the “Bouts as % of Vehicle Controls” value ([3]; oral 20 mg/kg, 100% = 92 bouts) was 122%, the “Bouts/40 min Mean ± SEM” value [3, 15] was 112.0 ± 14.5 and the Sedated animals ([4]; oral 150 mg/kg) was 0/10.

With `CN(C)CCOC(c1ccccc1)c1ccccc1` [DIPHENHYDRAMINE] the Sedated animals ([4]; oral 50 mg/kg) was 5/10 and the Sedated animals ([4]; oral 100 mg/kg) was 8/10.

For `OCCOCCN1CCN(C(c2ccccc2)c2ccc(Cl)cc2)CC1` (stereo not drawn) [HYDROXYZINE], the Sedated animals ([4]; oral 100 mg/kg) was 9/10.

With `CN1CCN(C(=O)c2cc3cc(Cl)ccc3[nH]2)CC1` [J&J7777120, reference compound] the “Bouts/40 min Mean ± SEM” value ([3]; oral 20 mg/kg, vehicle 20% hydroxypropyl-β-cyclodextrin) was 63.6 ± 11.7 and the “Bouts as % of Vehicle Controls” value ([3]; oral 20 mg/kg, versus vehicle for JNJ7777120 (112 bouts)) was 57* %.

With `CN1CCC(=C2c3ccccc3CC(=O)c3sccc32)CC1` [Ketotifen, 4-(1-methyl-4-piperidyline)-4H-benzo(4,5)-cyclohepta-(1,2-b) thiophene-10-one] the Sedated animals ([4]; oral 25 mg/kg) was 5/10, the Sedated animals ([4]; oral 50 mg/kg) was 8/10 and the Sedated animals ([4]; oral 100 mg/kg) was 10/10. For the same compound, the LD50 ([5]; intravenous) was 5 to 10 mg/kg and the LD50 ([5]; oral) was < 300 mg/kg.

In the case of `CCOC(=O)N1CCC(=C2c3ccc(Cl)cc3CCc3cccnc32)CC1` [LORATADINE], the Sedated animals ([4]; oral 150 mg/kg) is reported as 1/10.

For `CNS(=O)(=O)C[C@H]1CC[C@H](N(C)c2ncnc3[nH]ccc23)CC1` [Oclacitinib, reference compound], the “Bouts as % of Vehicle Controls” value ([3]; oral 20 mg/kg, 100% = 92 bouts) was 55* % and the “Bouts/40 min Mean ± SEM” value [3, 15] was 50.9 ± 18.7.

For `COc1ccc(CN(CCN(C)C)c2ccccn2)cc1` [PYRILAMINE], the Sedated animals ([4]; oral 100 mg/kg) was 8/10.

With `O=C1Cc2ccccc2C(=C2CCNCC2)c2ccsc21` [R-NORKETOTIFEN] the Sedated animals ([4]; oral 100 mg/kg, 100 mg/kg) was 3/10 and the Sedated animals ([4]; oral 150 mg/kg, 150 mg/kg) was 3/10.

With `O=C(O)/C=C/C(=O)O.O=C1Cc2ccccc2C(=C2CCNCC2)c2ccsc21` [R-norketotifen HF] the “M. globosa MIC” value [13] was 500 mg/L and the “S. aureus MIC” value [14] was 1000 mg/L.

With `O=C(O)/C=C/C(=O)O.O=C1Cc2ccccc2C(=C2CCNCC2)c2ccsc21` [RS-norketotifen HF] the “M. globosa MIC” value [13] was 250 mg/L and the “S. aureus MIC” value [14] was 500 mg/L.

For `O=C1Cc2ccccc2C(=C2CCNCC2)c2ccsc21` [S-NORKETOTIFEN], the Sedated animals ([4]; oral 100 mg/kg, 100 mg/kg) was 0/10 and the Sedated animals ([4]; oral 150 mg/kg, 150 mg/kg) was 0/10.

In the case of `O=C(O)/C=C/C(=O)O.O=C1Cc2ccccc2C(=C2CCNCC2)c2ccsc21` [S-norketotifen HF], the “M. globosa MIC” value [13] is reported as 250 mg/L and the “S. aureus MIC” value [14] is reported as 500 mg/L.

In the case of `CC(C)(C)c1ccc(C(O)CCCN2CCC(C(O)(c3ccccc3)c3ccccc3)CC2)cc1` (stereo not drawn) [TERFENADINE], the Sedated animals ([4]; oral 150 mg/kg) is reported as 0/10.
